Results taken from patent publication US12552753B2, “Methods and compositions for targeting Tregs using CCR8 inhibitors” (Nanjing Immunophage Biomedical Co., Ltd., priority 2020, dated 2026).
Where a name gives a salt, the structure may show the parent alone.

Molecular target: CCR8 (Homo sapiens, UniProt P51685)
Assay: Tango assay (Tango-CCR8-Gal4-CHO-K1 cells, CCL1-stimulated, ONE-Glo luminescence)
Conditions: Tango Assay IC50, Inhibition of CCR8 Tango cell in vitro
Procedure: The Tango cell line was used to monitor antagonists-mediated receptor inactivation.
Tango cells (Tango-CCR8-Gal4-CHO-K1 cells constructed by Genomeditech) were passaged in complete medium (F12K, 10% FBS, 1% penicillin-streptomycin, 4 μg/ml puromycin, 4 μg/ml blasticidin and 100 μg/ml hygromycin) in incubator (37° C., 5% CO2).
Twenty-four hours before the seed, cells were cultured in 10 or 15 cm dish at a density of 30% confluence in culture medium (F12K, 10% FBS, 1% penicillin-streptomycin).
Cells were suspended in starving medium (F12K, 1% FBS, 1% penicillin-streptomycin) before being seeded into black/clear 96 wells (1×10^4 cells/70 μl/well) and incubated for 6 hours (37° C., 5% CO2). Different concentration of compound, dissolved in DMSO, was into the 96-well plates, with 50 μl in each well, and incubation continued for 1 hour at 37° C.
After the incubation, the medium was removed and the 96-well plate was put in −80° C. freezer for an hour or longer. The plate and the ONE-Glo reagent (Promega, Catalog Number: E6110) which was frozen in −80° C., were taken out and rewarmed to room temperature. The ONE-Glo working reagent was prepared by mixing ONE-Glo reagent with F12K (no FBS) (1:2), and 40 μl ONE-Glo working reagent was added into each well. After incubating for 10 minutes at room temperature, the plate was read using microplate luminescence reader at 560 nm.
The microplate reader records luminescence in relative luminescence units (RLU).

Sequence of CCR8 (P51685 whole entry, the tested form may be a part): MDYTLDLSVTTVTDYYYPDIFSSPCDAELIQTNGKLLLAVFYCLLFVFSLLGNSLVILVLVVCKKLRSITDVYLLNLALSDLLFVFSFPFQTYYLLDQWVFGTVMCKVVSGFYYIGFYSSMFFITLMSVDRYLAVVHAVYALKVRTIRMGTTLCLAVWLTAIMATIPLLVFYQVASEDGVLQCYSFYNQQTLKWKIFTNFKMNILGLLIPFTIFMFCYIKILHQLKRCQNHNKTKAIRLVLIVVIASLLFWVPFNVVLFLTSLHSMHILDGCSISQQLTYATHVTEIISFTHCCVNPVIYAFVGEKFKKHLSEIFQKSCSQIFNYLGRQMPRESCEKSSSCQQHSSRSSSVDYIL

Row | Structure (SMILES) | IC50
1 | Cc1cc(S(=O)(=O)N[C@H](C)C2CCNCC2)ccc1NC(=O)c1ccsc1 [Compound 211A, (R)-N-(2-methyl-4-(N-(1-(piperidin-4-yl)ethyl)sulfamoyl)phenyl)thiophene-3-carboxamide hydrochloride] | 96 nM
2 | Cc1cc(S(=O)(=O)N[C@H](C)C2CCNCC2)ccc1NC(=O)C1CCOCC1 [Compound 212A, (R)-N-(2-methyl-4-(N-(1-(piperidin-4-yl)ethyl)sulfamoyl)phenyl)tetrahydro-2H-pyran-4-carboxamide hydrochloride] | 2500 nM
3 | Cc1ccccc1C(=O)Nc1ccc(S(=O)(=O)NC(C)CC2CCN(C)CC2)c2ccccc12 (stereo not drawn) [Compound 214, 2-methyl-N-(4-(N-(1-(1-methylpiperidin-4-yl)propan-2-yl)sulfamoyl)naphthalen-1-yl)benzamide] | > 10000 nM
4 | Cc1ccccc1C(=O)Nc1ccc(S(=O)(=O)N[C@H](C)C2CCN(C)CC2)cc1C#N [Compound 221, (R)-N-(2-cyano-4-(N-(1-(1-methylpiperidin-4-yl)ethyl)sulfamoyl)phenyl)-2-methylbenzamide] | 24 nM
5 | Cc1ccccc1NC(=O)c1ccc(S(=O)(=O)N[C@H](C)C2CCN(C)CC2)cc1C [Compound 222, (R)-2-methyl-4-(N-(1-(1-methylpiperidin-4-yl)ethyl)sulfamoyl)-N-(o-tolyl)benzamide] | 366 nM
6 | CCC(NS(=O)(=O)c1ccc(NC(=O)c2ccccc2C)c(C)c1)C1CCNCC1 (stereo not drawn) [Compound 223A, 2-methyl-N-(2-methyl-4-(N-(1-(piperidin-4-yl)propyl)sulfamoyl)phenyl)benzamide hydrochloride] | 73 nM
7 | Cc1cc(S(=O)(=O)NC(C(C)C)C2CCNCC2)ccc1NC(=O)c1ccccc1C (stereo not drawn) [Compound 224A, 2-methyl-N-(2-methyl-4-(N-(2-methyl-1-(piperidin-4-yl)propyl)sulfamoyl)phenyl)benzamide hydrochloride] | 494 nM
8 | Cc1cc(S(=O)(=O)NC(C2CCNCC2)C2CC2)ccc1NC(=O)c1ccccc1C (stereo not drawn) [Compound 225A, N-(4-(N-(cyclopropyl (piperidin-4-yl)methyl)sulfamoyl)-2-methylphenyl)-2-methylbenzamide] | 25 nM
9 | Cc1cc(S(=O)(=O)NC(c2ccccc2)C2CCNCC2)ccc1NC(=O)c1ccccc1C (stereo not drawn) [Compound 227A, 2-methyl-N-(2-methyl-4-(N-(phenyl(piperidin-4-yl)methyl)sulfamoyl)phenyl)benzamide] | > 100000 nM
10 | Cc1cc(S(=O)(=O)N[C@H](C)C2C[C@@H]3CCC2N3)ccc1NC(=O)c1ccccc1C (stereo partly drawn) [Compound 228A, N-(4-(N-(1-(exo-7-azabicyclo[2.2.1]heptan-2-yl)ethyl)sulfamoyl)-2-methylphenyl)-2-methylbenzamide hydrochloride] | > 100000 nM
11 | Cc1ccccc1CNc1ccc(S(=O)(=O)N[C@H](C)C2CCN(C)CC2)cc1C [Compound 229, (R)-3-methyl-4-((2-methylbenzyl)amino)-N-(1-(1-methylpiperidin-4-yl)ethyl)benzenesulfonamide] | > 100000 nM
12 | Cc1ccccc1C(=O)N(C)c1ccc(S(=O)(=O)N[C@H](C)C2CCNCC2)cc1C [Compound 231A, (R)-N,2-dimethyl-N-(2-methyl-4-(N-(1-(piperidin-4-yl)ethyl)sulfamoyl)phenyl)benzamide hydrochloride] | 279 nM
13 | CCOC(=O)C(C)(C)C(C)NS(=O)(=O)c1ccc(NC(=O)c2ccccc2C)c(C)c1 (stereo not drawn) [Compound 232, ethyl 2,2-dimethyl-3-(3-methyl-4-(2-methylbenzamido)phenylsulfonamido) butanoate] | 685 nM
14 | Cc1cc(S(=O)(=O)NC(C)C(C)(C)CO)ccc1NC(=O)c1ccccc1C (stereo not drawn) [Compound 233, 3-((4-(N-(4-hydroxy-3,3-dimethylbutan-2-yl)sulfamoyl)-2-methylphenyl)carbamoyl)-2-methylbenzene-1-ylium] | 886 nM
15 | Cc1cc(S(=O)(=O)NC(CO)C2CCNCC2)ccc1NC(=O)c1ccccc1C (stereo not drawn) [Compound 234, N-(4-(N-(2-hydroxy-1-(piperidin-4-yl)ethyl)sulfamoyl)-2-methylphenyl)-2-methylbenzamide] | 1400 nM
16 | Cc1cc(S(=O)(=O)N[C@H](C)C2CCNCC2)ccc1NC(=O)Nc1ccccc1 [Compound 236A, (R)-3-methyl-4-(3-phenylureido)-N-(1-(piperidin-4-yl)ethyl)benzenesulfonamide hydrochloride] | 158 nM
17 | Cc1cc(S(=O)(=O)N(C)[C@H](C)C2CCNCC2)ccc1NC(=O)c1ccccc1C [Compound 237A, (R)-2-methyl-N-(2-methyl-4-(N-methyl-N-(1-(piperidin-4-yl)ethyl)sulfamoyl)phenyl)benzamide hydrochloride] | > 100000 nM
18 | Cc1cc(S(=O)(=O)NCC2CCN(C)CC2)ccc1NC(=O)c1ccccc1C [Compound 238, 2-methyl-N-(2-methyl-4-(N-((1-methylpiperidin-4-yl)methyl)sulfa-moyl)phenyl)benza-mide] | 369 nM

Row | Structure (SMILES) | IC50
19 | Cc1cc(S(=O)(=O)NC(C)C2CCOCC2)ccc1NC(=O)c1ccccc1C (stereo not drawn) [Compound 239, 2-methyl-N-(2-methyl-4-(N-(1-(tetrahydro-2H-pyran-4-yl)ethyl)sulfamoyl)phen-yl)benzamide] | 843 nM
20 | COC(=O)C(NS(=O)(=O)c1ccc(NC(=O)c2ccccc2C)c(C)c1)C1CCNCC1 (stereo not drawn) [Compound 240A, methyl 2-((3-methyl-4-(2-methylbenzamido)phen-yl)sulfonamido)-2-(piperidin-4-yl)acetate hydrochloride] | > 100000 nM
21 | Cc1cc(S(=O)(=O)NC(C)C23CCN(CC2)CC3)ccc1NC(=O)c1ccccc1C (stereo not drawn) [Compound 241, 2-methyl-N-(2-methyl-4-(N-(1-(quiuclidin-4-yl)ethyl)sulfamoyl)phen-yl)benzamide] | 256 nM
22 | Cc1ccccc1C(=O)Nc1cc(F)c(S(=O)(=O)N[C@H](C)C2CCNCC2)cc1Cl [Compound 242A, (R)-N-(2-chloro-5-fluoro-4-(N-(1-(piperidin-4-yl)eth-yl)sulfamoyl)phen-yl)-2-methylbenzamide hydrochloride] | 15 nM
23 | Cc1ccccc1C(=O)Nc1cc(F)c(S(=O)(=O)N[C@@H](C)C2CCNCC2)cc1Cl [Compound 242B, (S)-N-(2-chloro-5-fluoro-4-(N-(1-(piperidin-4-yl)ethyl)sulfamoyl)phenyl)-2-methylbenzamide hydrochloride] | > 100000 nM
24 | Cc1ccccc1C(=O)Nc1cc(Cl)c(S(=O)(=O)N[C@H](C)C2CCNCC2)cc1Cl [Compound 243A, (R)-N-(2,5-dichloro-4-(N-(1-(piperidin-4-yl)ethyl)sulfamoyl)phen-yl)-2-methylbenzamide hydrochloride] | 12 nM
25 | Cc1ccccc1C(=O)Nc1cc(Cl)c(S(=O)(=O)N[C@@H](C)C2CCNCC2)cc1Cl [Compound 243B, (S)-N-(2,5-dichloro-4-(N-(1-(piperidin-4-yl)ethyl)sulfamoyl)phen-yl)-2-methylbenzamide hydrochloride] | > 100000 nM
26 | Cc1ccccc1C(=O)Nc1ccc(S(=O)(=O)N[C@H](C)C2CCNCC2)c(Cl)c1Cl [Compound 244A, (R)-N-(2,3-dichloro-4-(N-(1-(piperidin-4-yl)ethyl)sulfamoyl)phen-yl)-2-methylbenzamide hydrochloride] | 104 nM
27 | Cc1ccccc1C(=O)Nc1ccc(S(=O)(=O)N[C@H](C)C2CCNCC2)c(C)c1Cl [Compound 245A, (R)-N-(2-chloro-3-methyl-4-(N-(1-(piperidin-4-yl)ethyl)sulfamoyl)phen-yl)-2-methylbenzamide hydrochloride] | > 100000 nM
28 | Cc1ccccc1C(=O)Nc1ccc(S(=O)(=O)N[C@H](C)C2CCNCC2)c(F)c1Cl [Compound 246A, (R)-N-(2-chloro-3-fluoro-4-(N-(1-(piperidin-4-yl)ethyl)sulfamoyl)phenyl)-2-methylbenzamide hydrochloride] | 79 nM
29 | Cc1cc(S(=O)(=O)N[C@H](C)C2CCN(C3CCCC3)CC2)ccc1NC(=O)c1ccccc1C [Compound 247, (R)-N-(4-(N-(1-(1-cyclopentylpiperidin-4-yl)ethyl)sulfamoyl)-2-methylphenyl)-2-methylbenzamide] | 1 nM
30 | COC(=O)CN1CCC([C@@H](C)NS(=O)(=O)c2ccc(NC(=O)c3ccccc3C)c(C)c2)CC1 [Compound 248, methyl(R)-2-(4-(1-((3-methyl-4-(2-methylbenzamido)phenyl)sulfonamido)ethyl)piperidin-1-yl)acetate] | 105 nM
31 | Cc1cc(S(=O)(=O)N[C@H](C)C2CCNCC2)ccc1NC(=O)c1ccccc1C(F)(F)F [Compound 249A, (R)-N-(2-methyl-4-(N-(1-(piperidin-4-yl)ethyl)sulfamoyl)phenyl)-2-(trifluoromethyl) benzamide hydrochloride] | 12 nM
32 | Cc1cc(S(=O)(=O)N[C@H](C)C2CCNCC2)ccc1NC(=O)c1ccsc1C [Compound 250A, (R)-2-methyl-N-(2-methyl-4-(N-(1-(piperidin-4-yl)ethyl)sulfamoyl)phenyl)thiophene-3-carboxamide hydrochloride] | 105 nM
33 | Cc1cc(S(=O)(=O)N[C@H](C)C2CCNCC2)ccc1NC(=O)c1ccncc1C [Compound 251A, (R)-3-methyl-N-(2-methyl-4-(N-(1-(piperidin-4-yl)ethyl)sulfamoyl)phenyl)isonicotinamide hydrochloride] | > 100000 nM
34 | Cc1cc(S(=O)(=O)N[C@H](C)C2CCNCC2)ccc1NC(=O)c1cncs1 [Compound 252A, (R)-N-(2-methyl-4-(N-(1-(piperidin-4-yl)ethyl)sulfamoyl)phenyl)thiazole-5-carboxamide hydrochloride] | > 100000 nM
35 | Cc1cc(S(=O)(=O)N[C@H](C)C2CCNCC2)ccc1NC(=O)c1nccs1 [Compound 253A, (R)-N-(2-methyl-4-(N-(1-(piperidin-4-yl)ethyl)sulfamoyl)phenyl)thiazole-2-carboxamide hydrochloride] | 851 nM

Same assay, conditions: read-out: Tango Assay IC50, Inhibition of CCR8 Tango cell in vitro

Row | Structure (SMILES) | IC50
36 | Cc1ccccc1C(=O)Nc1c(C)cc(S(=O)(=O)N[C@H](C)C2CCN(C)CC2)cc1Cl [Compound 220, (R)-N-(2-chloro-6-methyl-4-(N-(1-(1-methylpiperidin-4-yl)ethyl)sulfamoyl)phenyl)-2-methylbenzamide] | 1 nM
